Measurements as given in US11554182B2, “Macrocyclic complexes of alpha-emitting radionuclides and their use in targeted radiotherapy of cancer” (CORNELL UNIVERSITY, priority 2017, dated 2023).

Key:
[1] = La^3+ complex of macropa; cited from earlier work
[2] = Lu^3+ titration with macropa (UV, pH 7.4); type: physicochemical; details: pH 7.4, MOPS buffer, RT
Method: (§1) La^3+ and Lu^3+ Titrations with Macropa. The pH of a 10 mM 3-(N-morpholino)propanesulfonic acid (MOPS) buffer was adjusted to 7.4 using aqueous NMe4OH. The ionic strength was set at 100 mM using NMe4Cl. Stock solutions of LaCl3.6.8H2O (40 mM) and LuCl3.6H2O (21 mM) were prepared in 1 mM HCl. A stock solution of H2macropa.2HCl.4H2O (8.8 mM) was prepared in MOPS buffer. From these stock solutions, titration solutions containing macropa (100 μM) and either LaCl3 or LuCl3 were prepared in MOPS. Each metal ion titration was carried out at RT by adding 5-10 μL aliquots of titrant to a cuvette containing 3000 μL of macropa (100 μM) in MOPS. Each sample was allowed to equilibrate for 5 min following every addition before a spectrum was acquired. Complexation of the metal ion was monitored by the decrease in absorbance at 268 nm, the λmax of macropa. Titrant was added until no further spectral changes were detected.

[3] = Lu^3+ complex of macropa; cited from earlier work
[4] = La^3+ titration with macropa (UV, pH 7.4); type: physicochemical; details: pH 7.4, MOPS buffer, RT
Method: as §1

## O=C(O)c1cccc(CN2CCOCCOCCN(Cc3cccc(C(=O)O)n3)CCOCCOCC2)n1 [macropa, N,N′-bis[(6-carboxy-2-pyridil)methyl]-4,13-diaza-18-crown-6]
[1]
  stability constant log KLaL: 14.99
[2]
  affinity of Lu^3+ for macropa by titration: high affinity
[3]
  stability constant log KLuL: 8.25
[4]
  affinity of La^3+ for macropa by titration: high affinity
